The source of these data is ChEMBL document CHEMBL1128076, “Synthesis of novel 20-oxo-pregnacalciferol analogs with binding affinity to the progesterone receptor” (1995).

The structures appear in SMILES notation.

This assay deals with T47D. The assay is described as follows: Inhibition of breast cancer cell line T47D proliferation. It is filed as functional, Homo sapiens. Further details: concentration or dose not given beside the values.
`C[C@H](C=O)C1CCC2/C(=C/C=C3CCC4(CC3)OCCO4)CCC[C@@]21C` (stereo partly drawn) gave an Inhibition of 47%.
As for `CC(=O)C1CCC2/C(=C/C=C3CCCCC3)CCC[C@]12C` (stereo partly drawn), the Inhibition is 24%.
As to `C[C@H](CO)C1CCC2/C(=C/C=C3CCC4(CC3)OCCO4)CCC[C@@]21C` (stereo partly drawn), the Inhibition amounted to 40%.
`C[C@H](CO)C1CCC2/C(=C/C=C3CCCCC3)CCC[C@@]21C` (stereo partly drawn): the Inhibition was 13%.
The figure for `CC(=O)C1CCC2/C(=C/C=C3CCC4(CC3)OCCO4)CCC[C@]12C` (stereo partly drawn) is 47%.
The figure for `CC(=O)C1CCC2/C(=C/C=C3CCC(=O)CC3)CCC[C@]12C` (stereo partly drawn) is 58%; for `C[C@H](C=O)C1CCC2/C(=C/C=C3CCCCC3)CCC[C@@]21C` (stereo partly drawn) it is 36%.
In turn, `C=C1CC[C@H](O)C/C1=C/C=C1\CCC[C@]2(C)C(C(C)=O)CCC12` (stereo partly drawn) showed an Inhibition of 59%.
